Reference: PMC3639963, “A New Class of Small Molecule Inhibitor of BMP Signaling” (PLoS ONE, 2013)

Assays:
Assay in all cases: Nanosyn kinase profiling
Assay type in all cases: biochemical
Settings in all cases: read-out: Percentage inhibition; for inhibition at 0.1 µM: 0.1 µM inhibitor; for inhibition at 1 µM: 1 µM inhibitor
SGK1 = biological target: T1, SGK1 (Homo sapiens, UniProt O00141)
T1 construct: purchased Nanosyn (enzymatic panel); SGC in-house recombinant human kinases (DSF panel); Invitrogen (ALK1-6)
T1 sequence (O00141 1-431): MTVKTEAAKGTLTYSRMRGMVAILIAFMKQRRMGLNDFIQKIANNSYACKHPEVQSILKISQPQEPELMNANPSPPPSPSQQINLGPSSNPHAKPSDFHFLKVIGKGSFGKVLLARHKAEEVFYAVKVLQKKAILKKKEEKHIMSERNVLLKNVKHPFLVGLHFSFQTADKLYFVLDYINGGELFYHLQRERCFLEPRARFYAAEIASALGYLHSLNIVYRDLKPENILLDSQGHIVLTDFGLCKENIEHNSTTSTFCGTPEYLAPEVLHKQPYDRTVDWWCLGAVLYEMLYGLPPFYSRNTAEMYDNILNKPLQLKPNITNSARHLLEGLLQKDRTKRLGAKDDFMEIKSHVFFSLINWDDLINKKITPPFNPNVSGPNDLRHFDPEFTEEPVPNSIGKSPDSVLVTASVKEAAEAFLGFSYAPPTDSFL
How it was run: (§1)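 Percent inhibition of each kinase was measured with the inhibitor at 0.1 µM and at 1 µM, as part of a 200-kinase human selectivity panel.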

HIPK4 = biological target: T2, HIPK4 (Homo sapiens, UniProt Q8NE63)
T2 construct: purchased Nanosyn (enzymatic panel); SGC in-house recombinant human kinases (DSF panel); Invitrogen (ALK1-6)
T2 sequence (Q8NE63 1-616): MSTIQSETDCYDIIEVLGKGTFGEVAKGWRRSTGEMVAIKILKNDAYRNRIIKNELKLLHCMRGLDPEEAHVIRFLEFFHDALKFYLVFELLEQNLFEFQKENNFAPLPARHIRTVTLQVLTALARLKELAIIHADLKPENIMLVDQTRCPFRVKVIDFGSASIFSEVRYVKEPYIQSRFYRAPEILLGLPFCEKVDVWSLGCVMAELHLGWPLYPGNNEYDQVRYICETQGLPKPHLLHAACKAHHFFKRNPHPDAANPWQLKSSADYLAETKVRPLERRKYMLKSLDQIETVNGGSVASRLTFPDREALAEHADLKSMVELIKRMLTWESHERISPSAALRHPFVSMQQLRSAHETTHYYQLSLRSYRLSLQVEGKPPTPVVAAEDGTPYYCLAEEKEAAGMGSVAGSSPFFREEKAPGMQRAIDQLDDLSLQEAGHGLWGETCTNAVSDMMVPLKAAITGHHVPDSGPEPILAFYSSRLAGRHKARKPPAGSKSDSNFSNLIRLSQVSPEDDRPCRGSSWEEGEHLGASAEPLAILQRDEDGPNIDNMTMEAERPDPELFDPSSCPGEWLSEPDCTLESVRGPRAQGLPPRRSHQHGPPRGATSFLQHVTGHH
How it was run: as §1

PAK5 = biological target: T3, PAK5 (Homo sapiens, UniProt Q9P286)
T3 construct: purchased Nanosyn (enzymatic panel); SGC in-house recombinant human kinases (DSF panel); Invitrogen (ALK1-6)
How it was run: as §1

TXK = biological target: T4, TXK (Homo sapiens, UniProt P42681)
T4 construct: purchased Nanosyn (enzymatic panel); SGC in-house recombinant human kinases (DSF panel); Invitrogen (ALK1-6)
T4 sequence (P42681 1-527): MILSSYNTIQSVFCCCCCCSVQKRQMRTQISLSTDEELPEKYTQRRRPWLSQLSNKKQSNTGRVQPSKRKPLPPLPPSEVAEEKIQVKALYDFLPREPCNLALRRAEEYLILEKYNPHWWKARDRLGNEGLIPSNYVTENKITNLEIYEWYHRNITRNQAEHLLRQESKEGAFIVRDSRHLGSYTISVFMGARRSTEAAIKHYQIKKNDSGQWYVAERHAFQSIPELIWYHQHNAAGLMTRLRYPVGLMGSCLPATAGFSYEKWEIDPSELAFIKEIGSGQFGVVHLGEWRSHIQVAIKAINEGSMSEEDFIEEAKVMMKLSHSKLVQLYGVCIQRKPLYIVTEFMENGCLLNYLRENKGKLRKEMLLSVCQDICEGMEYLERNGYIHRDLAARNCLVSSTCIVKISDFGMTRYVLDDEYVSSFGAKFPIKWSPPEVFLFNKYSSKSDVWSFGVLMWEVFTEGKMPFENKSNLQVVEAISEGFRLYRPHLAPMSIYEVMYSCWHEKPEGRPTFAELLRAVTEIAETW
How it was run: as §1

TEC = biological target: T5, TEC (Homo sapiens, UniProt P42680)
T5 construct: purchased Nanosyn (enzymatic panel); SGC in-house recombinant human kinases (DSF panel); Invitrogen (ALK1-6)
T5 sequence (P42680 1-631): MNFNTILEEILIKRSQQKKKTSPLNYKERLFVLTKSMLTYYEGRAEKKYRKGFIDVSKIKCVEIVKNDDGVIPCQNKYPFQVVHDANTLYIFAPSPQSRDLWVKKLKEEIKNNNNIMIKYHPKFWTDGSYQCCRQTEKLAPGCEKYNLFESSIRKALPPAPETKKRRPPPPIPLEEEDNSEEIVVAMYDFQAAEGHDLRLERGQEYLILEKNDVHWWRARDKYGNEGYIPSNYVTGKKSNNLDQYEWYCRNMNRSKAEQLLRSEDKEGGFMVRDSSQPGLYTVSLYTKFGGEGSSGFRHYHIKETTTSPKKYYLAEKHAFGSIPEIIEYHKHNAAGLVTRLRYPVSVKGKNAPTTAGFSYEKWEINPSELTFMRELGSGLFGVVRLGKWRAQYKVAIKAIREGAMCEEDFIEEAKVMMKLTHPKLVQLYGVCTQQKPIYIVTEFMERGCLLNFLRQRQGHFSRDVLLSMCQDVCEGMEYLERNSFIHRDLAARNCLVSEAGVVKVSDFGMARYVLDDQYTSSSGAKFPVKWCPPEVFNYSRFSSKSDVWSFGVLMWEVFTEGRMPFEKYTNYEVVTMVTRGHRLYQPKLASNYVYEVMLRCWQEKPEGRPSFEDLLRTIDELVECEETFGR
How it was run: as §1

T3 sequence (Q9P286 whole entry): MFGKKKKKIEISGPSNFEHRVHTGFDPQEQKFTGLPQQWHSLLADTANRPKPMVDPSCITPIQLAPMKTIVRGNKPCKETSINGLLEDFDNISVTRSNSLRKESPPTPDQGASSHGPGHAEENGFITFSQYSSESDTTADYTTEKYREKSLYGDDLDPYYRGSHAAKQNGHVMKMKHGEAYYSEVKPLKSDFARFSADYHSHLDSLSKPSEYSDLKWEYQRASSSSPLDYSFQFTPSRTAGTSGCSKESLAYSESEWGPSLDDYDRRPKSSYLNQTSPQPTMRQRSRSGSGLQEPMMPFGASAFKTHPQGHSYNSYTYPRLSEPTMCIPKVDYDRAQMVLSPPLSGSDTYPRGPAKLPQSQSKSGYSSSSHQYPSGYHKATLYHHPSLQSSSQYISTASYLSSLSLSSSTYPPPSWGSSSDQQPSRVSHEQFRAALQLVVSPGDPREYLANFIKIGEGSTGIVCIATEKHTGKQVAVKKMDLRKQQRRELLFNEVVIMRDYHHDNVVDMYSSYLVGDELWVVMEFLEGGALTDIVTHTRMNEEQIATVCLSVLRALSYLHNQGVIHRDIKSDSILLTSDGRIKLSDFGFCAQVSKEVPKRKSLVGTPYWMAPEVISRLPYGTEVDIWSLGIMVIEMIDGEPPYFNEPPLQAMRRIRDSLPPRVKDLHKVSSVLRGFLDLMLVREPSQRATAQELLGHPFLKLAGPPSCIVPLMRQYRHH

Row | Compound | inhibition at 0.1 µM (SGK1) [%] | inhibition at 1 µM (SGK1) [%] | inhibition at 0.1 µM (HIPK4) [%] | inhibition at 1 µM (HIPK4) [%] | inhibition at 0.1 µM (PAK5) [%] | inhibition at 1 µM (PAK5) [%] | inhibition at 0.1 µM (TXK) [%] | inhibition at 1 µM (TXK) [%] | inhibition at 0.1 µM (TEC) [%] | inhibition at 1 µM (TEC) [%]
1 | COc1cc(-c2cc(-c3cccc(O)c3)cnc2N)cc(OC)c1OC [K02288, 3-[6-amino-5-(3,4,5-trimethoxy-phenyl)-pyridin-3-yl]-phenol] | 1.1 | -2 | 0.8 | 4.2 | -1 | -1 | 2.8 | 36 | 0.3 | 14
2 | c1ccc2c(-c3cnn4cc(-c5ccc(N6CCNCC6)cc5)cnc34)ccnc2c1 [LDN-193189] | 1.1 | 0.8 | 0 | 4.9 | 6.2 | 8.5 | 4.1 | 16 | 1.8 | 5.5
